These results are taken from patent US20150376216A1, “SUGAR-ANALOG PHOSPHORUS-CONTAINING HETEROCYCLES HAVING AN ANTI-METASTATIC ACTIVITY” (CENTRE NATIONAL DE LA RECHERCHE SCIENTIRIQUE, priority 2013, published 2015).

Read-outs that look alike come from different tables or passages of the source.

One data set has as its system DU145. In words: MTT antiproliferative test, DU145. The data set is classed as cell-based. The following applies: Homo sapiens, DU-145, read-out: IC50, inhibition of proliferation. On the procedure:
(§1) The lines MDAMB-435 and A431 are seeded at a density of 3000 cells per well in 96-well plates. After 24 hours, compounds 4.2a and 5.6d resuspended in 100% DMSO are added at concentrations of 0-0.001-0.010-0.1-1-10-50 μM for a final constant amount of DMSO of 0.3%. The cultures are maintained for a further 72 hours and an MTT colorimetric test is then performed. 100 μl of a solution of MTT at 5 mg/ml in PBS are added to the culture medium, which is left to incubate for 3 hours. The culture medium is removed and the cells are lyzed by adding 100 μL of a 4 mM HCl solvent, 0.1% Nondet P-40 (NP40) in isopropanol. The yellow tetrazolium MTT salt (3-(4,5-dimethylthiazol-2-yl)-2,5-diphenyl tetrazolium bromide), when it is reduced by the mitochondrial succinate dehydrogenase of active live cells, forms a blue-violet formazan product. The medium then changes from yellow to blue-violet. The intensity of this coloration at 590 nm is proportional to the number of live cells present during the test and gives an indication of the metabolic activity of these cells.
(§2) Table 1 gives the concentration values for 50% inhibition of proliferation (IC50) for compounds 4.2a and 5.6d on lines derived from bowel cancer (CaCo2), skin cancer (A431, MDAMB-435, B16F10), breast cancer (MDAMB-431), […] (HuH7), prostate cancer (DU145) and brain cancer (SNB75, Gli4, Gli7).

The test system of the next data set is HuH7. Kind of data set: MTT antiproliferative test, HuH7. The following applies: Homo sapiens, Huh-7, read-out: IC50, inhibition of proliferation. The data set is classed as cell-based. On the procedure:
as §1, §2
(In general: Formazan colour is commonly taken as a measure of viable cells.)

For the next data set, the system named is MDAMB-231. Kind of data set: MTT antiproliferative test, MDAMB-231. The data set is classed as cell-based. The following applies: Homo sapiens, MDA-MB-231, read-out: IC50, inhibition of proliferation. On the procedure: as §1, §2
The next data set deals with SNB75 glioblastoma line. Kind of data set: MTT antiproliferative test, SNB75. The class given is cell-based. Conditions: Homo sapiens, SNB-75, read-out: IC50, inhibition of proliferation. As for the experimental part: (§3) Several cancer cell lines were used for the in vivo or in vitro biological tests: • SNB75 is a human glioblastoma line derived from a primary culture, i.e. derived from a primary malignant cancer tumor. It forms part of the panel of 59 cancer lines referenced by the NCI. Its Cosmic reference number published by the Welcome Trust Sanger Institute is 905982. This line was supplied by a person (M.D. Ph.D of the department of “Radiation Oncology”, Stanford University Medical Center). It was cultured in Ham's F-12 and DMEM (1/1) supplemented with 10% fetal bovine serum. The experiments were performed with cells in the exponential growth phase. • Gli4 (or Gli4F11) and Gli7 are cultures of cancer strain cells derived from human glioblastomas (primary cultures). These lines are CD133^+, CD15^+ which are multipotent and tumorigenic in animals. They were established by J. P. Hugnot (INM INSERM U-1051 Eq. 4), and described in Guichet, P. O. et al, Glia 2013, 61(2), 225-239; • C6 is a rat glioblastoma line. It is referenced in the ATCC under the reference CCL-107. • MDAMB-435 is a melanoma line derived from a mammary melanoma. It forms part of the panel of 59 cancer lines referenced by the NCI. It is referenced at the ATCC under the reference HTB-129. It was cultured in Ham's F-12 and DMEM (1/1) supplemented with 10% fetal bovine serum. […]

The test system of data set [1] is epidermoid cancer line A431. In words: Boyden chamber migration test, A431. The data set is classed as cell-based, human. The following applies: for Ki: 24 hours, read-out: Inhibition constant Ki, migration. As for the experimental part:
The effects of compounds 3.48a, 4.2a and 5.6d on the migration of cancer cells (human glioblastoma line SNB75 or primary culture of human glioblastoma Gli4F1, on the one hand, and MDAMB 435 and A431 on the other hand), were determined by performing a standard migration test in a Boyden chamber (treatment of the cells for 24 hours).
For this test, the compounds were dissolved in vitro and used in culture in 0.3% of DMSO. The interior of the inserts was covered with the extracellular matrix protein studied (laminin-1, vitronectin or fibronectin). The cells pretreated at various concentrations and untreated (controls) were deposited in the inserts covered with said protein at a rate of 50 000 cells/500 μl/insert in a medium containing 0.1% of BSA (bovine serum albumin).
500 μl of medium containing 10% fetal calf serum were then placed in each well of a Companion plate so as to allow the formation of a chemotactic gradient across the porous membrane. After 24 hours of migration in the incubator at 37° C., the supernatent was removed and the inserts rinsed with PBS on each face. The cells were counted with a microscope (Zeiss Axiophot, magnification ×200). This gives a percentage of migration relative to the untreated cells.
Table 2 below gives, for compound 3.48a, the values for the inhibition constants (Ki) for the migration of a human GBM line (SNB75), of GBM stem cell lines (Gli4, Gli7) and of a breast cancer line MDAMB231, in a Boyden chamber, on various extracellular matrix protein supports. Tables 3 and 4 below give, for compounds 4.2a and 5.6d, the values of the inhibition constants (Ki) for the migration of a melanoma line (MDAMB-435) or of an epidermoid cancer line (A431), in a Boyden chamber, on various extracellular matrix protein supports. The inhibitory effect depends on the line and the stem cells used, but also on the extracellular matrix protein support used.

Another data set deals with GLi4. In words: MTT antiproliferative test, Gli4. The following applies: Homo sapiens, read-out: IC50, inhibition of proliferation. The class given is cell-based. As for the experimental part:
as §3

The test system of the next data set is C6 glioblastoma line. In words: MTT antiproliferative test, C6. The data set is classed as cell-based. Conditions: Rattus norvegicus, read-out: IC50, inhibition of proliferation. On the procedure: as §3
The test system of a further data set is A431 line. In words: MTT antiproliferative test, A431. The data set is classed as cell-based, human. Conditions: A-431, read-out: IC50, inhibition of proliferation. As for the experimental part:
as §1, §2

For a further data set, the system named is Gli7. Kind of data set: MTT antiproliferative test, Gli7. The data set is classed as cell-based. The following applies: Homo sapiens, read-out: IC50, inhibition of proliferation. On the procedure:
as §3

The next data set has as its system B16F10. In words: MTT antiproliferative test, B16F10. The data set is classed as cell-based. The following applies: Mus musculus, B16-F10, read-out: IC50, inhibition of proliferation. On the procedure:
as §1, §2

The next data set relates to MDAMB-435 melanoma line. In words: MTT antiproliferative test, MDAMB-435. Conditions: Homo sapiens, MDA-MB-435, 72 hours, read-out: IC50, inhibition of proliferation. The class given is cell-based. On the procedure:
as §1, §2

The next data set concerns CaCo2. In words: MTT antiproliferative test, CaCo2. The data set is classed as cell-based. Conditions: Homo sapiens, Caco-2, read-out: IC50, inhibition of proliferation. On the procedure: as §1, §2
The subject of a further data set is SNB75 cells. In words: SNB75 subcutaneous model. The class given is in vivo, mice. As for the experimental part:
Nude female mice 4-5 weeks old with an average weight of […], supplied by the R. Janvier breeding center, were used. The mice were kept in a pathogen-free environment and with food and water present ad libitum. The experiments were commenced after one week of acclimatizing the mice to their new environment.
A suspension of 5×10^6 SNB75 cells in 100 μl of sterile PBS (phosphate-buffered saline, provided by Fisher) was injected into each mouse (subcutaneous administration without anesthesia). Once the mice presented tumors with volumes of between […], groups were formed so that each of them contained an equivalent number of large, medium and small tumors. The protocol was conducted with five groups of seven mice. The five groups of mice were treated using one of the five formulations described below:
Group A: Treatment by injection of 100 μl of NaCl (control N° 1).
Group B: Treatment with compound 3.48a at a rate of 10 mg/kg with volumes of 100 to 150 μl of formulation 2 according to the weight of the mice.
Group C: Treatment with compound 3.48a at a rate of 5 mg/kg with volumes of 100 to 150 μl of formulation 2 according to the weight of the mice.
Group D: Treatment with temozolomide at a rate of 20 mg/kg with volumes of 100 to 150 μl according to the weight of the mice. Temozolomide is a comparative anticancer active principle sold under the name Temodal by the laboratory Schering Plough. It is indicated for treating glioblastoma multiforme.
Group E: Treatment by injection of 100 to 150 μl according to the weight of the mice of formulation 2 not containing compound 3.48a (control N° 2).
Each batch was treated by intravenous injection into the caudal vein of 100 to 150 μl of solution (precision syringe and G25X1 needle ultrafine wall, VWR). Three injections per week for four weeks were performed. The mice were weighed at each injection. The sizes of the tumors were measured twice a week for a period of four weeks. The mice were sacrificed after four weeks and the tumors and organs (liver, kidney, spleen, brain, intestine, heart, muscles) were removed. A histological analysis was performed on these organs.

Regarding `CC(=O)N[C@@H]1[C@H]2OC(C)(C)O[C@H]2[C@@H]([C@H]2COC(C)(C)O2)O[P@@]1(=O)c1ccccc1` [Compound 5.6d], the IC50 was 31200 nM in the data set with DU145; 22000 nM with HuH7; 23200 nM in the data set on MDAMB-231; 650 nM with SNB75 glioblastoma line; 10 to 100 nM in [1] (Homo sapiens, A-431, on fibronectin or vitronectin, read-out: Concentration for a 50% decrease in migration of the cancer cells); 540 nM with GLi4. Moreover, the IC50 in the data set on C6 glioblastoma line came out at 650 nM; in the data set with A431 line (A431 line (human epidermoid cancer)) it was 100 nM; in the data set with A431 line (Homo sapiens, A431, 72 hours, MTT), 130 nM; in the data set with Gli7 it was 500 nM; with B16F10, 14900 nM; in the data set with MDAMB-435 melanoma line it was 9610 nM. Further, the IC50 in the data set on CaCo2 amounted to 36000 nM. Moreover, the results for the Ki in data set [1] (support Fibronectin), in [1] (support Laminin) and in [1] (support Vitronectin) were 8 nM, 13 nM and 20 nM, respectively.

Take `Cn1nnc2c(C(N)=O)ncn2c1=O` [temozolomide, reference compound]: in the data set with SNB75 cells (20 mg/kg i.v. (group D), remaining four mice), the Weight loss entry was “substantial weight losses”. Further, in the data set with SNB75 cells (20 mg/kg i.v. (group D), seven mice), the Mortality entry is reported as “three of the seven mice died after the third injection”. For the same compound, the “Lethality at higher dose” value in the data set on SNB75 cells (dose of 40 mg/kg) is “leads to the death of the mice before the end of the experimentation period”.
